This note sets out measurements from ChEMBL document CHEMBL1158996, “Antiviral phloroglucinols from New Zealand Kunzea species” (1992).

The subject of one test is Human alphaherpesvirus 1. Description: Antiviral activity against Herpes simplex virus type 1 assessed as inhibition of virus-induced cytopathic effect at 5 ug/disk. Format: functional. Particulars: read-out: IZ. In general terms: Cytopathic effects are the visible damage that an infection or toxin causes in cultured cells.
A further test relates to Poliovirus 1. Description: Antiviral activity against Poliovirus type 1 assessed as inhibition of virus-induced cytopathic effect at 5 ug/disk. Format: functional. Particulars: Enterovirus C; read-out: IZ.

On to `COc1cc(O)c(C(=O)C(C)C)c(O)c1`, for which the zone of inhibition at 5 µg/disc in the test with Human alphaherpesvirus 1 and in the test with Poliovirus 1 was 17 mm throughout.

In the case of `COc1cc(O)cc(O)c1C(=O)C(C)C` [ROBUSTAOL B], the zone of inhibition at 5 µg/disc with Human alphaherpesvirus 1 and in the test on Poliovirus 1 was 17 mm each time.
